Consider two molecules from patent publication US7273847B2, “Peptides with antioxidant and antimicrobial properties” (priority 2000, dated 2007).

Test [1] concerns surfactant lipids. The test can be described thus: TBARS assay of copper-induced oxidation of surfactant lipids. Type of test: biochemical. The note with it: for I.C.50 (half maximal concentration) for inhibition of copper-induced oxidation of surfactant lipids / Concentration of complete inhibition / maximal protection of surfactant lipids: 10 μM Cu2+, 24 hr, TBARS; for I.C.50 (half maximal concentration) for inhibition of copper-induced oxidation of surfactant lipids: 37° C.; for Lipid peroxidation (LPO) produced by copper or iron: 24 hr incubation, 10 μM copper or iron; for TBARS Surfactant lipids Malondialdehyde: mean ± S.E.M., n=3; for IC50: assuming rat SP-A M.W.=600,000, rat SP-D M.W.=500,000, read-out: I.C.50 for inhibition of copper-induced oxidation of surfactant lipids.

In test [2] the test system is LDL. The test can be described thus: TBARS assay of copper-induced oxidation of LDL. The note with it: for I.C.50 (half-maximal point) for inhibition of copper-induced oxidation of LDL / Concentration of complete inhibition of LDL oxidation (to basal levels) / IC50: 10 μM Cu2+, TBARS; for I.C.50 (half-maximal point) for inhibition of copper-induced oxidation of LDL: 4 hours; for IC50: read-out: I.C.50 for inhibition of copper-induced oxidation of LDL; for TBARS LDL Malondialdehyde: mean ± S.E.M., n=3; for Concentration required to provide the same level of antioxidant protection: LDL, level of 500 μg/ml of rat serum. Type of test: biochemical, human. Here is the method: Substrates for lipid oxidation included mixtures of natural and synthetic glycerophospholipids that are found in pulmonary surfactant and human LDL. The surfactant lipid mix, composed of egg phosphatidylcholine, dipalmitoylphosphatidylcholine, cholesterol and 1-oleoyl-2-linoleoyl-sn-glycero-3-phosphocholine (1:1:0.15:0.15, w/w, respectively) (Avanti Polar Lipids) in chloroform, was dried to a film under nitrogen. Following hydration in PBS or 0.15 M NaCl for 30 min, multilamellar vesicles were generated by vigorous vortexing for 5 minutes. LDL were isolated from the plasma of normal blood donors by density gradient ultracentrifugation (density=1.019-1.063 g/ml) as previously described in Qin et al., Am. J. Physiol. 274(5 Pt 2): H1836-1840 (1998), and stored in saline-EDTA. Just prior to use, EDTA was removed by dialysis against PBS, and the concentration of LDL was determined by Lowry assay (in milligrams of LDL-associated protein).
(§1) Stock solutions of 10 mM CuSO4 were freshly prepared daily. Reaction mixtures containing 1 mg/mi surfactant lipids or 150 μg/ml LDL were incubated with 10 μM CuSO4 for 24 hours or 4 hours, respectively, in the presence of putative oxidation inhibitors or controls at 37° C. in a shaking water bath in accordance with the method of Gelvan et al., Biochim. Biophys. Acta 1035(3):353-360 (1990). Control reactions which included LDL only, 10 μM CuSO4 or protein controls of bovine serum albumin (BSA), rat IgG, recombinant MBP, rat serum and human complement C1q were performed concurrently with experimental samples. Thiobarbituric acid-reactive substances (TBARS) were measured using a method adapted from Gelvan et al., Biochim. Biophys. Acta 1035(3):353-360 (1990). Samples and 0-10 μM […] standards were developed by addition of a solution composed of 0.375% thiobarbituric acid, 15% trichloroacetic acid, and 0.25N HCl at a volume ratio of 1:2, sample: developer. Following incubation at 95° C. for 30 minutes and centrifugation at 14,000 rpm for 15 minutes, an aliquot was read at 540 nm in a spectrophotometer. For continuous assessment of lipid oxidation, the accumulation of conjugated dienes during LDL oxidation was monitored spectrophotometrically in accordance with the method of Esterbauer et al., Free Rad. Med. Biol. 13, 341-390 (1992). Mixtures of 150 μg/ml LDL, 10 μM copper, and various amounts of surfactant proteins or control proteins were placed in quartz cuvettes and allowed to oxidize at room temperature over 335 minutes. Conjugated diene formation was assessed by measuring absorbance at 234 nm in a spectrophotometer.
The data are set forth graphically in FIG. 3. Various concentrations of recombinant wild type SP-A (circle), mutant SP-A containing a deletion of the collagen-like domain (square) and mutant SP-A containing only the neck and C-lectin domain (CLD) (triangle) were incubated with LDL in the presence of 10 μM Cu^2+, and lipid peroxidation was quantified by TBARS assay. Data are means, n=3-4.

In test [3] the test system is LDL. Briefly: Continuous spectrophotometric monitoring of conjugated diene formation during copper-induced LDL oxidation. Conditions: for Effect of addition during the propagation phase of oxidation: 10 μg/ml SP-A at 95, 175 or 195 minutes, 1 μg/ml SP-D at 95, 125 or 155 minutes; for Effect on accumulation of conjugated dienes when included at zero time: SP-A 1.0-10 μg/ml, SP-D 0.01-1 μg/ml; for Concentration of complete inhibition of oxidation (conjugated diene formation): added at zero time, 10 μM copper, room temperature, absorbance 234 nm. In kind it is biochemical, human. Here is the method:
as §1
The temporal relationship between the addition of SP-A or SP-D and the inhibition of LDL oxidation was determined spectrophotometrically by continuously monitoring conjugated diene accumulation associated with exposure to copper, in accordance with the method of Esterbauer et al., Free Rad. Med. Biol. 13:341-390 (1992). The assay is based on the oxidation dependent rearrangement of 1,4 pentadienyl double bonds of LDL lipids to 1,3-butadienyl double bonds, which absorb in the ultraviolet range. In the presence of 10 μM copper at room temperature, LDL particles resist oxidation for up to 100 minutes as endogenous antioxidants such as atocopherol are consumed. At that point, the rate of oxidation increases in proportion to the concentration of initiating radicals, reaching a plateau when all unsaturated fatty acids are consumed.
According to FIG. 2, conjugated diene formation during copper-induced LDL oxidation was monitored spectrophotometrically by measuring absorbance at 234 nm.

Test [4] concerns LDL. Briefly: Western (immunoblot) analysis of protein carbonyl derivatives formed during copper mediated LDL oxidation. Type of test: biochemical, human. Conditions: SP-A 10 μg/ml, SP-D 1 μg/ml; alkylated SP-A 50 μg/ml, alkylated SP-D 10 μg/ml. How it is done:
Proteins were analyzed for carbonyl modification of amino acid side groups that occur during lipid oxidation, as described in Levine et al., Methods Enzymol. 186, 464-478 (1990). Briefly, proteins that were included in reactions mixtures with LDL and 10 μM copper were derivatized to 2,4-dinitrophenylhydrazones (DNP-hydrazones) by reaction with 2,4-dinitrophenylhydrazine (DNPH), size fractionated by 8-16% SDS-PAGE under reducing conditions and electrophorectically transferred to nitrocellulose membranes (Oxyblot, Intergen). The membrane was sequentially incubated with a rabbit anti-DNP IgG and a horseradish peroxidase-conjugated goat anti-rabbit IgG. Blots were developed by HRP-dependent oxidation of a chemiluminescent substrate, and visualized using autoradiography.
To determine if the surfactant proteins act as sinks for reactive lipid intermediates, covalent modification of SP-A and SP-D during LDL oxidation was assessed using a western analysis technique that detects carbonyl adducts (Levine et al., Methods Enzymol. 186: 464-78 (1990)). As depicted by FIG. 4, oxidative modification of proteins that occurred during copper induced LDL oxidation were determined by Western analysis using an antibody to DNP-derivatized carbonyl moieties. Reaction mixtures contained LDL only, LDL+Cu^2+, LDL+Cu^2++albumin+10 μg/ml SP-A, LDL+Cu^2++albumin+1 μg/ml SP-D, LDL+Cu^2++albumin, LDL+Cu^2++albumin+50 μg/ml iodoacetamide treated SP-A, LDL+Cu^2++albumin+10 μg/ml iodoacetamide treated SP-D, 50 μg/ml albumin+50 μg/ml iodoacetamide treated SP-A, albumin+10 μg/ml iodoacetamide treated SP-D.
(In general: Immunoblotting shows a protein as a band on a membrane.)

Test [5] deals with model surfactant lipids. Briefly: AIBN-initiated lipid peroxidation of model surfactant lipids. In kind it is biochemical. Conditions: 3 hours incubation, with or without low concentrations of copper; preliminary data.
The mark [6] stands for this setting: surfactant lipids, copper-induced.

“Also recorded” adds a separate entry of the source.

Take “SP-A: Native surfactant protein A isolated from the alveolar wash of silica-pretreated rats”: in test [1], the “I.C.50 (half maximal concentration) for inhibition of copper-induced oxidation of surfactant lipids” value turned out to be 5.07 µg/mL, the “Concentration of complete inhibition / maximal protection of surfactant lipids” value is 10 µg/mL, the “Lipid peroxidation (LPO) produced by copper or iron” value is reported as “block lipid peroxidation” and the IC50 was found to be 8.4 nM. Further, the “TBARS Surfactant lipids Malondialdehyde” value in test [1] (Lipid + Cu2+ + 10 μg/ml protein) is 0.23 ± 0.01 µM. In test [1] (setting [6]), the “Effect of alkylation with iodoacetamide on the antioxidant effects” value is listed as “completely blocked the antioxidant effects” and the “Effect of presaturation with 70 uM copper or addition of 2 mM Ca2+ on antioxidant activity” value was “neither the presaturation of SP-A with 70 uM copper, as indicated in Table 1, below, or the addition of 2 mM Ca^2+ (not shown) had a significant effect on the activity”. In test [1] (surfactant lipids, level reached by 500 μg/ml rat serum), the “Concentration required to achieve the same level of inhibition of oxidation” value is “about 5.0 μg/ml”. For the same molecule, in test [2], the “I.C.50 (half-maximal point) for inhibition of copper-induced oxidation of LDL” value turned out to be 4.75 µg/mL, the “Concentration of complete inhibition of LDL oxidation (to basal levels)” value worked out at 10 µg/mL, the IC50 worked out at 7.9 nM and the “Concentration required to provide the same level of antioxidant protection” value amounted to 2.5 µg/mL. Besides, the “TBARS LDL Malondialdehyde” value in test [2] (LDL + Cu2+ + 10 μg/ml protein) worked out at 0.0 ± 0.0 µM. For the same molecule, in test [3], the “Effect of addition during the propagation phase of oxidation” value was “arrested lipid oxidation almost immediately; also recorded: conjugated diene formation was completely arrested at the point of addition”, the “Effect on accumulation of conjugated dienes when included at zero time” value was “blocked the accumulation of conjugated dienes in a dose-dependent manner” and the “Concentration of complete inhibition of oxidation (conjugated diene formation)” value came to 10 µg/mL. In addition, the “LDL oxidation in carbonyl Western analysis” value in test [4] was “blocked LDL oxidation without the appearance of carbonyl-modified species”. In test [5], the “Inhibition of AIBN-initiated LPO” value is listed as “did not inhibit LPO, unless copper was added at low concentrations”.

B1: SP-D: Native surfactant protein D from rat alveolar wash; mouse SP-D was used interchangeably with rat SP-D (protein)
chain: AEMKSLSQRSVPNTCTLVMCSPTENGLPGRDGRDGREGPRGEKGDPGLPGPMGLSGLQGPTGPVGPKGENGSAGEPGPKGERGLSGPPGLPGIPGPAGKEGPSGKQGNIGPQGKPGPKGEAGPKGEVGAPGMQGSTGAKGSTGPKGERGAPGVQGAPGNAGAAGPAGPAGPQGAPGSRGPPGLKGDRGVPGDRGIKGESGLPDSAALRQQMEALKGKLQRLEVAFSHYQKAALFPDGRSVGDKIFRTADSEKPFEDAQEMCKQAGGQLASPRSATENAAIQQLITAHNKAAFLSMTDVGTEGKFTYPTGEPLVYSNWAPGEPNNNGGAENCVEIFTNGQWNDKACGEQRLVICEF
For B1, in test [1], the “I.C.50 (half maximal concentration) for inhibition of copper-induced oxidation of surfactant lipids” value was determined as 0.11 µg/mL, the “Concentration of complete inhibition / maximal protection of surfactant lipids” value is ≥ 0.5 µg/mL, the “Lipid peroxidation (LPO) produced by copper or iron” value is “block lipid peroxidation” and the IC50 came out at 0.2 nM. The “TBARS Surfactant lipids Malondialdehyde” value in test [1] (Lipid + Cu2+ + 1 μg/ml protein) came out at 0.27 ± 0.07 µM. In addition, in test [1] (surfactant lipids oxidation), the “I.C.50 fold lower than ApoAIV” value is listed as ~100 fold and the “I.C.50 fold lower than SP-A” value is listed as “approximately 35 fold”. In addition, the “Effect of alkylation with iodoacetamide on the antioxidant effects” value in test [1] (setting [6]) is “completely blocked the antioxidant effects”. Besides, in test [2], the “I.C.50 (half-maximal point) for inhibition of copper-induced oxidation of LDL” value was 0.14 µg/mL, the “Concentration of complete inhibition of LDL oxidation (to basal levels)” value stood at 1 µg/mL, the IC50 was 0.3 nM and the “Concentration required to provide the same level of antioxidant protection” value was 0.05 µg/mL. The “TBARS LDL Malondialdehyde” value in test [2] (LDL + Cu2+ + 1 μg/ml protein) turned out to be 0.0 ± 0.0 µM. In test [3], the “Effect of addition during the propagation phase of oxidation” value was “arrested lipid oxidation almost immediately; also recorded: conjugated diene formation was completely arrested at the point of addition”, the “Effect on accumulation of conjugated dienes when included at zero time” value is listed as “blocked the accumulation of conjugated dienes in a dose-dependent manner” and the “Concentration of complete inhibition of oxidation (conjugated diene formation)” value came out at 0.5 µg/mL. Besides, the “LDL oxidation in carbonyl Western analysis” value in test [4] is “blocked LDL oxidation without the appearance of carbonyl-modified species”. Further, the “Inhibition of AIBN-initiated LPO” value in test [5] is “did not inhibit LPO, unless copper was added at low concentrations”.
